Measured values from patent publication US20220411448A1, “CHROMENE-4-ONE DERIVATIVES AS BRAIN-DERIVED NEUROTROPHIC FACTOR (BDNF) MIMETICS” (FLORATEK PHARMA AG, priority 2019, published 2022).

Legend:
[1] = Metabolic stability in mouse intestine microsomes; type: in vitro ADME; conditions: male, CD1, mouse, pooled intestine microsomes, pH 7.4, intestinal microsomes, 0.5 mg/ml protein, read-out: T1/2 IM mouse
Method: Sample type: pooled liver or intestine microsomes; Species: CD1-mouse (male), human (mixed gender) Time points: 0, 10, 20, 40, 60 min cofactors, and negative control;
Protein content: 0.5 mg/ml: Replicates: 2 with cofactors, 1 without cofactors; Cofactors: NADPH (1 mM)+UDPGA (1 mM)+15 μg/ml alamethicin Buffer: 0.1 M phosphate buffer pH 7.4, 2 mM MgCl2; Spiking solvent: 50% DMSO ( 1/100 to incubation); Quenching solvent: 2-fold volume of 75% ACN, Control: midazolam disappearance rate
The study compounds were incubated with liver or intestine microsomes as specified above. The collected samples were stored at −20 C until thawed at room temperature, centrifuged and analyzed as presented below.
The samples were analysed by UPLC/HR-MS (with data dependent MS/MS mode) to monitor substrate depletion (and later optionally metabolite formation). The analytical method was optimised by using the parent compound for optimum chromatographic properties (peak shape and retention) and mass spectrometric ionisation. Disappearance rate of the study compound was estimated based on relative LC/MS peak areas (o min marked as 100%), and was used to calculate in vitro half-life and clearance (and in vivo extrapolation of hepatic clearance).

[2] = system: primary cultures of cerebral cortical astrocytes; test: Glucose uptake ([3H]2-deoxyglucose) in astrocyte cultures; type: cell-based, mouse; conditions: 10 μM, 30 minutes after application
Method: Primary cultures of cerebral cortical astrocytes were prepared from Swiss albino newborn mice (1-2 days old) as described [Pellerin L, Magistretti P J. Glutamate uptake into astrocytes stimulates aerobic glycolysis: a mechanism coupling neuronal activity to glucose utilization. Proc Natl Acad Sci USA. 1994 Oct. 25; 91(22):10625-9]. This procedure yields cultures that are >95% immunoreactive for glial fibrillary acidic protein.
Astrocytes are emerging as having significant roles in several homeostatic processes in the brain [Zuchero J B, Barres B A. Glia in mammalian development and disease. Development 2015 142: 3805-3809]. To evaluate the potential effects of Compound A (10 μM) on astrocyte metabolism, the uptake of glucose and lactate release were measured 30 minutes after application of compounds to the culture (FIGS. 2 and 3).
Glucose utilization by cells was measured using radioactive 2-deoxyglucose, a well-established marker of glucose utilization not metabolized within cells. […]
In order to quantify glucose utilization by cells in the presence of Compound A/SND118, radioactive 2-deoxyglucose, a well-established marker of glucose utilization not metabolized within cells, was used. The radioactivity count is thus proportional to the transport and phosphorylation of glucose that enters into the cells. […]

Arc, cFos, and Zif268 = test: Quantitative PCR of immediate-early genes linked to neuronal plasticity; type: cell-based, mouse; conditions: 1 μM and 10 μM, 1 h and 2 h treatment
Method: The effect of Compound A or derivative thereof on the mRNA expression of genes related to plasticity (Arc, cFos, and Zif268) was determined as described. Cox (cytochrome oxidase) was used to evaluate if the derivative changes expression of mitochondrial genes.
Determination of gene expression was performed as previously described [Yang J, et al, Lactate promotes plasticity gene expression by potentiating NMDA signalling in neurons. Proc Natl Acad Sci USA. 2014. 111(33):12228-33]. Total RNA was isolated from cultured cells using Nucleospin RNA II kit (Macherey-Nagel) according to the manufacturer's instructions. The first strand of cDNA was synthesized from 100 ng of total RNA (60 min at 37° C. followed by 5 min at 95° C.) using a high-capacity RNA to cDNA reverse transcription system (Applied Biosystems). One-twentieth of the resulting cDNA was amplified by quantitative PCR (qPCR) with an ABI Prism 7900 system (Applied Biosystems). The PCR mix was composed of 6 ng of cDNA, 300 nM of forward and reverse primers in 10 μL of ix SYBR-Green PCR MasterMix (Applied Biosystems). Primer sequences were designed using Primer Express 3.0 software (Applied Biosystems) and oligonucleotides were synthesized by Microsynth.

half-life at 1 μM [1]: 27.6 min
SMILES: O=c1cc(-c2ccc(CCCC[P+](c3ccccc3)(c3ccccc3)c3ccccc3)cc2)oc2c(O)c(O)ccc12 [SND118, 4-[4-(7,8-dihydroxy-4-oxo-chromen-2-yl)phenyl]butyltriphenylphosphonium bromide]
uptake of deoxyglucose (glucose uptake) [2]: increased the uptake of deoxyglucose in the same range as glutamate control
mRNA expression of genes related to plasticity (Arc, cFos, and Zif268) (Arc, cFos, and Zif268): increased
